# Patent publication US20240246967A1, “AXL COMPOUNDS” (ARCUS BIOSCIENCES, INC., priority 2021, published 2024)
# Tests used:
# [1] = molecular target: T1, Axl (Homo sapiens, UniProt P30530); test: HTRF KinEASE-TK biochemical potency assay, AXL; design: purchased Invitrogen; conditions: 5 nM AXL, 700 μM ATP, 800 nM TK Substrate-biotin
# T1 sequence (P30530 26-894): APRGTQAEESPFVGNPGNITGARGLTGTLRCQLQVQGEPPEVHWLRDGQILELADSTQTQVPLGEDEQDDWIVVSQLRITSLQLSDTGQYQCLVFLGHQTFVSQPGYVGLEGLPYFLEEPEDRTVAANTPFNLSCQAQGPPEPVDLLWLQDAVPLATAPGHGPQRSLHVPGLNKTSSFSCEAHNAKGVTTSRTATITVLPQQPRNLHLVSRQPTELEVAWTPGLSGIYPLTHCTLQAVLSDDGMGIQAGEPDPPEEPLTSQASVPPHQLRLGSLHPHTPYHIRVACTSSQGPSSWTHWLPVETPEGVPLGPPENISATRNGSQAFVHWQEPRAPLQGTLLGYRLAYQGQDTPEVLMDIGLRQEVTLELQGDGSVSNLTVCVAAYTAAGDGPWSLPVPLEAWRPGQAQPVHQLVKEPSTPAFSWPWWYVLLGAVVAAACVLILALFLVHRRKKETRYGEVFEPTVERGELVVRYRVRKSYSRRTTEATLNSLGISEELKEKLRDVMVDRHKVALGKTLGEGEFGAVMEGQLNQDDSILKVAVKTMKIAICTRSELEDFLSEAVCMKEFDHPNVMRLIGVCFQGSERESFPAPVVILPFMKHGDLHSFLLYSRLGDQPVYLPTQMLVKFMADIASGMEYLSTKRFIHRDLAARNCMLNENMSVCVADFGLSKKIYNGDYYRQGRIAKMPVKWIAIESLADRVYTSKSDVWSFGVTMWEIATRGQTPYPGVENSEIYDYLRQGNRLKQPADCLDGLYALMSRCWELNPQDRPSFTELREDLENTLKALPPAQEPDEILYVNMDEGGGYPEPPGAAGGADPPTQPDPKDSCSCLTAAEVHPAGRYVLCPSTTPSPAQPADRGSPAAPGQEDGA
# Outline: (§1)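 Recombinant human kinase preincubated 1 h at RT with compound, then reacted 2 h at RT with final 5 nM AXL or 1 nM TYRO3/MER, 800 nM TK Substrate-biotin and 700 μM ATP in HEPES pH 7.4, 10 mM MgCl2, 1% DMSO. Phosphorylation read by HTRF 665/620 ratio, expressed as percent activity.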
# [2] = molecular target: T2, human TYRO3 (Homo sapiens, UniProt Q06418); test: HTRF KinEASE-TK biochemical potency assay, TYRO3; conditions: 1 nM TYRO3, 700 μM ATP, 800 nM TK Substrate-biotin
# T2 construct: purchased Invitrogen
# T2 sequence (Q06418 41-890): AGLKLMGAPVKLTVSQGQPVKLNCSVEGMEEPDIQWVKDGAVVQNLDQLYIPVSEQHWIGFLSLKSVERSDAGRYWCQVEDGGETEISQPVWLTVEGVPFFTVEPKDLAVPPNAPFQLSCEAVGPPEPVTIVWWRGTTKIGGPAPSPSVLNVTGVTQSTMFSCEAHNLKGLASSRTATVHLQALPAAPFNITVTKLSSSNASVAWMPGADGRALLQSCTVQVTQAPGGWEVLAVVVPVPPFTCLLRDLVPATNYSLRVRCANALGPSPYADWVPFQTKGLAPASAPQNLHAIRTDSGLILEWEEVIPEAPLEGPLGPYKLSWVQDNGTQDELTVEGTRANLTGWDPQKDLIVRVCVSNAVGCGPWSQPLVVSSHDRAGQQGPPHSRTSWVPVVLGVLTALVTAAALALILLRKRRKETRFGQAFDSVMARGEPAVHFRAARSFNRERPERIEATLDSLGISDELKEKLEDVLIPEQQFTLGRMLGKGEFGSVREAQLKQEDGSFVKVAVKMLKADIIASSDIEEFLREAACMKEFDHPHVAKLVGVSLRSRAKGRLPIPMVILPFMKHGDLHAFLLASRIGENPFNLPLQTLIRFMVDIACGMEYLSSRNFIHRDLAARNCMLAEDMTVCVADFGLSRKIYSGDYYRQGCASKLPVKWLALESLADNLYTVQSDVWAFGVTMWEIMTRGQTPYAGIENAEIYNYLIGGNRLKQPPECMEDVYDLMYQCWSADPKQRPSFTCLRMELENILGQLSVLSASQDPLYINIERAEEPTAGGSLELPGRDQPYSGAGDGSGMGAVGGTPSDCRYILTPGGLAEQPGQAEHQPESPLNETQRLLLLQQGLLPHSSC
# Outline: as §1
Compound,IC50 [1],IC50 [2]
"C[C@@H]1CCCN1C1CCc2ccc(-c3cnc4[nH]nc(-c5ccc(S(=O)(=O)C6CC6)cc5)c4c3)cc2C(C)(C)C1 (stereo partly drawn) [Example 109, (2R)-1-(2-{3-[4-(Cyclopropanesulfonyl)phenyl]-1H-pyrazolo[3,4-b]pyridin-5-yl}-9,9-dimethyl-6,7,8,9-tetrahydro-5H-benzo[7]annulen-7-yl)-2-methylpyrrolidine]",< 100 nM,100 to 1000 nM
"COCCOc1ccc(-c2n[nH]c3ncc(-c4ccc5c(c4)CCC(C)(N4CCC[C@H]4C)CC5)cc23)cc1 (stereo partly drawn) [Example 110, 3-(4-(2-Methoxyethoxy)phenyl)-5-(7-methyl-7-((R)-2-methylpyrrolidin-1-yl)-6,7,8,9-tetrahydro-5H-benzo[7]annulen-2-yl)-1H-pyrazolo[3,4-b]pyridine]",< 100 nM,100 to 1000 nM
"COCCS(=O)(=O)c1ccc(-c2n[nH]c3ncc(-c4ccc5c(c4)CCC(C)(N4CCC[C@H]4C)CC5)cc23)cc1 (stereo partly drawn) [Example 111, (2R)-1-(2-{3-[4-(2-Methoxyethanesulfonyl)phenyl]-1H-pyrazolo[3,4-b]pyridin-5-yl}-7-methyl-6,7,8,9-tetrahydro-5H-benzo[7]annulen-7-yl)-2-methylpyrrolidine]",< 100 nM,< 100 nM
"O=C([C@@H]1CCCN1)N1CCc2ccc(-c3cnc4[nH]nc(-c5ccc(S(=O)(=O)C6CC6)cc5)c4c3)cc2CC1 [Example 112, 7-{3-[4-(Cyclopropanesulfonyl)phenyl]-1H-pyrazolo[3,4-b]pyridin-5-yl}-3-[(2S)-pyrrolidine-2-carbonyl]-2,3,4,5-tetrahydro-1H-3-benzazepine]",< 100 nM,100 to 1000 nM
"O=C([C@H]1CCCN1)N1CCc2ccc(-c3cnc4[nH]nc(-c5ccc(S(=O)(=O)C6CC6)cc5)c4c3)cc2CC1 [Example 113, 7-{3-[4-(Cyclopropanesulfonyl)phenyl]-1H-pyrazolo[3,4-b]pyridin-5-yl}-3-[(2R)-pyrrolidine-2-carbonyl]-2,3,4,5-tetrahydro-1H-3-benzazepine]",< 100 nM,100 to 1000 nM
"COc1cc(-c2n[nH]c3ncc(-c4ccc5c(c4)CCC(C)(N4CCC[C@H]4C)CC5)cc23)ccc1OC[C@H]1COCCO1 (stereo partly drawn) [Example 114, (2R)-1-{2-[3-(4-{[(2R)-1,4-Dioxan-2-yl]methoxy}-3-methoxyphenyl)-1H-pyrazolo[3,4-b]pyridin-5-yl]-7-methyl-6,7,8,9-tetrahydro-5H-benzo[7]annulen-7-yl}-2-methylpyrrolidine]",< 100 nM,100 to 1000 nM
"CC1(N[C@H]2CCOC2)CCc2ccc(-c3cnc4[nH]nc(-c5ccc(S(=O)(=O)C6CC6)cc5)c4c3)cc2CC1 (stereo partly drawn) [Example 115, (3S)-N-(2-{3-[4-(Cyclopropanesulfonyl)phenyl]-1H-pyrazolo[3,4-b]pyridin-5-yl}-7-methyl-6,7,8,9-tetrahydro-5H-benzo[7]annulen-7-yl)oxolan-3-amine]",< 100 nM,100 to 1000 nM
"C[C@@H]1CCCN1C1(C)CCc2ccc(-c3cnc4[nH]nc(-c5ccc(C(=O)N[C@H]6CCOC6)cc5)c4c3)cc2CC1 (stereo partly drawn) [Example 117, 4-(5-{7-Methyl-7-[(2R)-2-methylpyrrolidin-1-yl]-6,7,8,9-tetrahydro-5H-benzo[7]annulen-2-yl}-1H-pyrazolo[3,4-b]pyridin-3-yl)-N-[(3S)-oxolan-3-yl]benzamide]",< 100 nM,> 1000 nM
"C[C@@H]1CCCN1C1(C)CCc2ccc(-c3cnc4[nH]nc(-c5ccc(C(=O)N6CCCC6)cc5)c4c3)cc2CC1 (stereo partly drawn) [Example 118, (2R)-2-Methyl-1-(7-methyl-2-{3-[4-(pyrrolidine-1-carbonyl)phenyl]-1H-pyrazolo[3,4-b]pyridin-5-yl}-6,7,8,9-tetrahydro-5H-benzo[7]annulen-7-yl)pyrrolidine]",< 100 nM,> 1000 nM
"Cc1cc(-c2n[nH]c3ncc(-c4ccc5c(c4)CCN(C4CC4)CC5)cc23)ccc1C(=O)N1CCNCC1 [Example 119, 3-Cyclopropyl-7-{3-[3-methyl-4-(piperazine-1-carbonyl)phenyl]-1H-pyrazolo[3,4-b]pyridin-5-yl}-2,3,4,5-tetrahydro-1H-3-benzazepine]",< 100 nM,< 100 nM
"CC1(N2CCc3ccc(-c4cnc5[nH]nc(-c6ccc(S(=O)(=O)C7CC7)cc6)c5c4)cc3CC2)CCCC1 [Example 120, 7-{3-[4-(Cyclopropanesulfonyl)phenyl]-1H-pyrazolo[3,4-b]pyridin-5-yl}-3-(1-methylcyclopentyl)-2,3,4,5-tetrahydro-1H-3-benzazepine]",< 100 nM,100 to 1000 nM
"O=C1OCCN1c1ccc(-c2n[nH]c3ncc(-c4ccc5c(c4)CC[C@@H](N4C6COCC4C6)CC5)cc23)cc1 [Example 121, 3-(4-{5-[(7S)-7-{3-oxa-6-azabicyclo[3.1.1]heptan-6-yl}-6,7,8,9-tetrahydro-5H-benzo[7]annulen-2-yl]-2H-pyrazolo[3,4-b]pyridin-3-yl}phenyl)-1,3-oxazolidin-2-one]",< 100 nM,100 to 1000 nM
"O=C1CCCN1c1ccc(-c2n[nH]c3ncc(-c4ccc5c(c4)CC[C@@H](N4C6COCC4C6)CC5)cc23)cc1 [Example 122, 1-(4-{5-[(7S)-7-{3-oxa-6-azabicyclo[3.1.1]heptan-6-yl}-6,7,8,9-tetrahydro-5H-benzo[7]annulen-2-yl]-2H-pyrazolo[3,4-b]pyridin-3-yl}phenyl)pyrrolidin-2-one]",< 100 nM,> 1000 nM
"COCCOc1ccc(-c2n[nH]c3ncc(-c4ccc5c(c4)CC[C@@H](N4C6COCC4C6)CC5)cc23)cc1 [Example 123, 6-[(7S)-2-{3-[4-(2-methoxyethoxy)phenyl]-2H-pyrazolo[3,4-b]pyridin-5-yl}-6,7,8,9-tetrahydro-5H-benzo[7]annulen-7-yl]-3-oxa-6-azabicyclo[3.1.1]heptane]",< 100 nM,100 to 1000 nM
"CC(C)(C)S(=O)(=O)c1ccc(-c2n[nH]c3ncc(-c4ccc5c(c4)CC[C@@H](N4C6COCC4C6)CC5)cc23)cc1 [Example 124, 6-[(7S)-2-{3-[4-(2-methylpropane-2-sulfonyl)phenyl]-2H-pyrazolo[3,4-b]pyridin-5-yl}-6,7,8,9-tetrahydro-5H-benzo[7]annulen-7-yl]-3-oxa-6-azabicyclo[3.1.1]heptane]",< 100 nM,100 to 1000 nM
"CN(C)C(=O)c1ccc(-c2n[nH]c3ncc(-c4ccc5c(c4)CC[C@@H](N4C6COCC4C6)CC5)cc23)cc1 [Example 125, N,N-Dimethyl-4-{5-[(7S)-7-{3-oxa-6-azabicyclo[3.1.1]heptan-6-yl}-6,7,8,9-tetrahydro-5H-benzo[7]annulen-2-yl]-2H-pyrazolo[3,4-b]pyridin-3-yl}benzamide]",< 100 nM,100 to 1000 nM
"c1cc2c(cc1-c1cnc3[nH]nc(-c4ccc(N5C[C@H]6C[C@@H]5CO6)cc4)c3c1)CC[C@@H](N1C3COCC1C3)CC2 [Example 126, (1R,4R)-5-(4-{5-[(7S)-7-{3-oxa-6-azabicyclo[3.1.1]heptan-6-yl}-6,7,8,9-tetrahydro-5H-benzo[7]annulen-2-yl]-2H-pyrazolo[3,4-b]pyridin-3-yl}phenyl)-2-oxa-5-azabicyclo[2.2.1]heptane]",< 100 nM,> 1000 nM
